Assay [1] concerns 35-GT (DNA, aptamer) GGGAGACAAGGAAAATCCTTCAATGAAGTGGGTCT
Briefly: ITC. Conditions: 10 mM Tris, pH 7.4, 23 °C.

For assay [2], the system named is 38-GT (DNA, aptamer) GGGAGACAAGGAAAATCCTTCAATGAAGTGGGTCTCCC
Briefly: ITC. The conditions noted are these: 10 mM Tris, pH 7.4, 23 °C.

For assay [3], the system named is ATP-30 (DNA, aptamer) CGCACCTGGGGGAGTATTGCGGAGGAAGGT
Briefly: ITC, two-site sequential binding. The conditions noted are these: 10 mM Mg2+; 10 mM Tris, pH 7.4, 23 °C; site 1 of 2 (KD2 10.1 ± 0.3 μM). Background: In ITC the heat of successive injections is recorded.

The subject of assay [4] is ATP-33 (DNA, aptamer) CGCACCTGGGGGAGTATTGCGGAGGAAGGTGCG
Briefly: ITC, two-site sequential binding. Conditions: 10 mM Mg2+; 10 mM Tris, pH 7.4, 23 °C; site 1 of 2 (KD2 12.3 ± 0.6 μM).

Consider 2 compounds from paper PMC6061857 (2018).

SMILES strings stand for the structures.

On to `COC(=O)[C@H]1[C@@H](OC(=O)c2ccccc2)C[C@@H]2CC[C@H]1N2C`, for which the KD was 12 ± 1.0 µM in assay [1] and 1.6 ± 0.2 µM in assay [2].

`Nc1ncnc2c1ncn2[C@@H]1O[C@H](COP(=O)(O)OP(=O)(O)OP(=O)(O)O)[C@@H](O)[C@H]1O`: the KD1 in assay [3] came out at 0.8 ± 0.1 µM; in assay [4], 0.6 ± 0.1 µM.

By KD is commonly meant the concentration at which binding is half-saturated. A higher KD goes with a looser complex.
